From US5118669A, “Peptides and intermediates therefor useful as antiallergic agents, vasodilators and immunoregulators” (Hitachi Chemical Co., Ltd., priority 1989, dated 1992) come the findings set out here.

Assay [1] relates to thoracic aorta of male rabbits contracted with potassium chloride. Put plainly: Vasodilating action on aortic spiral strip contracted with potassium chloride. The arrangement: species or system rabbit. The conditions noted are these: potassium chloride contraction. The protocol: (§1) The thoracic aorta of male rabbits weighing 2.5-3 kg was excised and aortic specimens of spiral strip 25-30 mm in length were prepared. […] The specimen was cumulatively administered with H-Asp-Gly-Lys-OH, H Ser-Asp-Gly-Lys-OH, or H-Asp-Ser-Asp-Gly-Lys-OH or H-Ala-Asp-Ser-Asp-Gly-Lys-OH, and relaxation reaction of the blood vessel was observed. As comparative drug were employed nitroprusside (sodium salt) and verapamil.

Assay [2] concerns thoracic aorta of male rabbits contracted with norepinephrine. Kind of assay: Vasodilating action on aortic spiral strip contracted with norepinephrine. The arrangement: species or system rabbit. The conditions noted are these: norepinephrine contraction. As to the method: as §1
In the next assay the test system is IL-6. Put plainly: Productivity of humoral factors by lymphocytes: IL-6. The class given is cell-based, human (healthy adult). The conditions noted are these: for IL-6: cultivation for a week, control 270; for production of IL-6: summary of Table 7. As to the method:
(§2) Mononuclear cells separated by the density centrifugal method from blood of a healthy adult drawn in the presence of heparin were suspended in an RPMI-1640 culture medium containing 10% by volume of FBS. The suspension was divided into culture tubes (Falcon 2054) each at a concentration of 1×10^6 cells/ml, to which the captioned peptides were respectively added. Cultivation was made in an incubator for a week. After completion of the cultivation, the culture was centrifuged (1,500 rpm, 10 min.), and the supernatant collected and assayed for humoral factors. Interleukin 1 (IL-1) and tumor-nectrotizing factors were measured, respectively by a IL-1 radioimmunoassay kit (manufactured by Amersham International) and a TNF radioimmunoassay kit (manufactured by Medgenix). Measurement of interleukin 6 (IL-6) was made by the enzyme immunoassay method (ELISA) using IL-6 antibody (manufactured by Genzyme). Results of the measurements are shown in Table 7 wherein figures represent mean value±standard error.

The test system of a further assay is IL-1. Put plainly: Productivity of humoral factors by lymphocytes: IL-1. The class given is cell-based, human (healthy adult). The conditions noted are these: for IL-1: cultivation for a week, control 7.1; for production of IL-1: summary of Table 7. As to the method: as §2
Assay [3] deals with lymphocytes (mononuclear cells from blood of a healthy adult). Kind of assay: Blast formation of lymphocytes stimulated with various lectins (3H-thymidine uptake). Particulars: for uptake of 3H-thymine by the lymphocytes stimulated with a lectin: particularly Con-A; for uptake of 3H-thymine by the lymphocytes stimulated with a lectin / influence upon uptake of 3H-thymine by lymphocytes in the absence of a mitogen: summary of Tables 3-6; for influence upon uptake of 3H-thymine by lymphocytes in the absence of a mitogen: no mitogen. The class given is cell-based, human (healthy adult). As to the method: Mononuclear cells were collected by the density centrifugal method from blood of a healthy adult drawn in the presence of heparin and suspended in an RPMI-1640 culture medium (manufactured by Gibco) containing 10% by volume of bovine fetus serum (called FBS, manufactured by Dainihon Seiyaku). The suspension, adjusted to a concentration of 1×10^6 cells/ml, was divided into a 96-well Falcon microplate (manufactured by Becton Dickinson) in a volume of 100 μl/well. Then, a lectin, 1 μg/ml of PHA (phytohemagglutinin), 10 μg/ml of Con-A (concanavalin A) or 15 μg/ml of PWM (pokeweed mitogen) and one of the captioned peptides at a predetermined concentration were added followed by addition of a 10% FBS containing RPMI-1640 medium to a final liquid volume of 200 μl. Cultivation was made in a 5% by volume CO2 incubator at 37° C. for 72 hours, and 24 hours before completion of the cultivation 5 μCi of ^3 H-thymidine was added. The cells were recovered by a cell harvester (manufactured by Bio-Lab), and uptake of the ^3 H-thymidine was measured by a scintillation counter. Results of the measurement are shown in Table 3-Table 6 wherein figures indicate mean count (cpm)±standard error.

For another assay, the system named is TNF. Put plainly: Productivity of humoral factors by lymphocytes: TNF. The conditions noted are these: for TNF: cultivation for a week, control 2,020; for production of TNF: summary of Table 7. The class given is cell-based, human (healthy adult). The protocol: as §2
Assay [4] relates to intraperitoneal mast cells of the rats. Kind of assay: Inhibitory activity on histamine release from passively sensitized rat mast cells. Format: cell-based. The protocol: Male Wistar rats weighing 300-350 g were passively sensitized, and intraperitoneal mast cells of the rats were employed for the test. Rat antiserum used in the passive sensitization was prepared in accordance with the method of Mota [Immunology, 7, p. 681 (1964)] and the method of Hamaoka [J. Immunology, 113, p. 958 (1974)]. Male Wistar rats (weighing 200-250 g) each were injected ovalbumin (10 mg/kg) in a volume of 5 ml/kg intramuscularly on both thighs and simultaneously 2×10^10 cells of killed Bordetella pertussis were intraperitoneally administered to immunize the animal. Blood was drawn from the animal under ether anesthesia via the abdominal aorta on day 12 of the initial sensitization,from which antiserum was separated. The antiserum was lyophilized and stored at -20° C. Titer of the antiserum was assayed by the 48-hour rat PCA reaction. […] The anti-albumin IgE serum of the rat was two fold diluted, and 1 ml of the diluted serum was intraperitoneally administered to sensitize the animal. The rat was killed by blooding 48 hours after the sensitization, and 15 ml of a phosphate buffered saline (NaCl 8 g, KCl 0.2 g, Na2 HPO4.12H2 O 2.88 g, KH2 PO4 0.2 g, EDTA.2Na 0.2 g and bovine serum albumin 1 g, dissolved in purified water to make 1 liter, pH 7.4 (called PBS(-) hereinbelow) was intraperitoneally injected. The rat was then given light abdominal massage for about 2 min. and subjected to laparotomy to collect cells in the abdominal cavity. The cell suspension was centrifuged (1,000 rpm, 10 min.) and then resuspended in PBS(-). The PBS(-) suspension was overlayered on gum arabic density (specific gravity 1.075) followed by centrifugal separation (2,500 rpm, 10 min.). Deposited cells were washed with PBS(-) and suspended in fresh PBS(+)[a solution in which the EDTA 2Na in PBS(-) is replaced by 0.1 g of CaCl2, called PBS(+)] and adjusted to 1×10^5 cells/ml. The cell suspension was divided into silicone-treated test tubes in a volume of 0.8 ml/tube, which were then preincubated at 37° C. for 10 min. In the cell suspension-containing test tube was placed 0.1 ml of a test solution from various solutions diluted with PBS(+) followed by incubation at 37° C. for 15 min. To the test tube was then added 0.1 ml of a mixed solution of ovalbumin antigen (final concentration 1 mg/ml) and phosphatidyl-L-serine (final concentration 100 μm/ml) followed by incubation for additional 15 min. to release histamine. For cromoglycate, one of the comparative drugs, the drug was added 30 sec. prior to the addition of the antigen, and incubation was then made for additional 15 min. The reaction was terminated by addition of 1 ml of ice-cooled PBS(+), and the reaction mixture was centrifuged at 2,500 rpm for 10 min. To 2 ml of the supernatant was added 1 ml of a 4% solution of perchloric acid, and the mixture was assayed for free histamine. For the assay of total histamine, a sample was prepared by placing 0.8 ml of a suspension of untreated mast cells in boiling water for 10 min. followed by addition of 4% perchloric acid.
Amount of histamine in the sample was assayed by fluorimetry, and percent histamine release (%) was calculated by the equation [formula]

[5] abbreviates: Con-A (10 μg/ml), peptide 10^-6 M, control 37,800.
The mark [6] stands for this setting: Con-A (10 μg/ml), peptide 10^-8 M, control 37,800.
Setting [7] is: PHA (1 μg/ml), peptide 10^-6 M, control 69,600.
The mark [8] stands for this setting: PHA (1 μg/ml), peptide 10^-8 M, control 69,600.
[9] abbreviates: PWM (15 μg/ml), peptide 10^-6 M, control 13,600.
Setting [10] is: PWM (15 μg/ml), peptide 10^-8 M, control 13,600.
The mark [11] stands for this setting: mitogen None, peptide 10^-6 M, control 1,090.
Where [12] appears, read: mitogen None, peptide 10^-8 M, control 1,090.

Take `COc1ccc(CCN(C)CCCC(C#N)(c2ccc(OC)c(OC)c2)C(C)C)cc1OC` (stereo not shown) [Verapamil, verapamil, reference compound]: the Percent relaxation in assay [1] (compound 10^-4 M) came to 100%; in assay [1] (compound 10^-5 M) it was 100%; in assay [1] (compound 10^-6 M), 97.1%; in assay [1] (compound 10^-7 M) it was 68.3%; in assay [1] (compound 10^-8 M), 7.1%; in assay [2] (compound 10^-4 M), 68.6%. Further, the Percent relaxation is on record as 47.1% in assay [2] (compound 10^-5 M), 20.6% in assay [2] (compound 10^-6 M), 4.6% in assay [2] (compound 10^-7 M) and 0% in assay [2] (compound 10^-8 M).

Turning to “H-DSDGK-OH [DSDGK, H-Asp-Ser-Asp-Gly-Lys-OH]”, the IL-6 with IL-6 (additive 10^-6 M) was 400 U/ml; with IL-6 (additive 10^-8 M), 280 U/ml. In addition, the “production of IL-6” value with IL-6 is on record as “promote production”. In addition, the IL-1 turned out to be 8.3 fM/ml with IL-1 (additive 10^-6 M) and 7.3 fM/ml in the assay on IL-1 (additive 10^-8 M). Further, the “production of IL-1” value in the assay on IL-1 is recorded as “promote production”. The “Uptake of 3H-thymidine by lymphocytes” value in assay [3] (setting [5]) is listed as 19,300 cpm; in assay [3] (setting [6]), 17,900 cpm; in assay [3] (setting [7]), 56,900 cpm; in assay [3] (setting [8]), 62,000 cpm; in assay [3] (setting [9]), 13,000 cpm; in assay [3] (setting [10]), 9,550 cpm. The “Uptake of 3H-thymidine by lymphocytes” value in assay [3] (setting [11]) was 877 cpm; in assay [3] (setting [12]), 887 cpm. Moreover, the “uptake of 3H-thymine by the lymphocytes stimulated with a lectin” value in assay [3] was “strongly inhibit”. Further, the “influence upon uptake of 3H-thymine by lymphocytes in the absence of a mitogen” value in assay [3] is given as “little influence”. Also, the values for the TNF in the assay with TNF (additive 10^-6 M) and in the assay with TNF (additive 10^-8 M) were 4,270 pg/ml and 4,100 pg/ml, respectively. In the assay with TNF, the “production of TNF” value is given as “promote production”.

With nitroprusside [reference compound], the Percent relaxation in assay [1] (compound 10^-4 M) turned out to be 35.7%; in assay [1] (compound 10^-5 M) it was 24.3%; in assay [1] (compound 10^-6 M), 11.4%; in assay [1] (compound 10^-7 M) it was 1.4%; in assay [1] (compound 10^-8 M), 0%; in assay [2] (compound 10^-4 M), 98.8%. The Percent relaxation in assay [2] (compound 10^-5 M) is on record as 93.8%; in assay [2] (compound 10^-6 M), 86.0%; in assay [2] (compound 10^-7 M) it was 59.4%; in assay [2] (compound 10^-8 M), 16.1%.

For “H-ADSDGK-OH [ADSDGK, H-Ala-Asp-Ser-Asp-Gly-Lys-OH]”, the IL-6 in the assay on IL-6 (additive 10^-6 M) and in the assay on IL-6 (additive 10^-8 M) was 270 U/ml throughout. For the same molecule, the “production of IL-6” value in the assay with IL-6 was “promote production”. Also, the IL-1 is on record as 11.2 fM/ml in the assay on IL-1 (additive 10^-6 M) and 11.3 fM/ml with IL-1 (additive 10^-8 M). In addition, the “production of IL-1” value in the assay with IL-1 was “promote production”. For the same molecule, the “Uptake of 3H-thymidine by lymphocytes” value in assay [3] (setting [5]) is on record as 21,500 cpm; in assay [3] (setting [6]) it was 24,600 cpm; in assay [3] (setting [7]), 63,000 cpm; in assay [3] (setting [8]) it was 64,100 cpm; in assay [3] (setting [9]), 13,600 cpm; in assay [3] (setting [10]), 14,500 cpm. Moreover, the “Uptake of 3H-thymidine by lymphocytes” value in assay [3] (setting [11]) stood at 900 cpm; in assay [3] (setting [12]) it was 797 cpm. The “uptake of 3H-thymine by the lymphocytes stimulated with a lectin” value in assay [3] is recorded as “strongly inhibit”. In assay [3], the “influence upon uptake of 3H-thymine by lymphocytes in the absence of a mitogen” value is listed as “little influence”. Further, the “inhibitory activity on histamine release” value in assay [4] (at a concentration of 10^-5 M or higher, FIG. 5-7) is “clear inhibitory activity”. Further, in assay [4] (versus comparative drug H-Asp-Ser-Asp-Pro-Arg-OH), the “potency of histamine release inhibition compared with H-Asp-Ser-Asp-Pro-Arg-OH” value was “higher”. In addition, the “potency of histamine release inhibition compared with cromoglycate” value in assay [4] (versus cromoglycate) is listed as “nearly equal to or higher”. Moreover, the TNF is 3,620 pg/ml in the assay with TNF (additive 10^-6 M) and 4,120 pg/ml in the assay on TNF (additive 10^-8 M). The “production of TNF” value in the assay with TNF is “promote production”.
